Laboratory results: US20250052754A1, “COMPOSITIONS AND METHODS FOR DIAGNOSIS, TREATMENT OF AND PREVENTION OF KIDNEY DISEASE” (XORTX THERAPEUTICS, INC., priority 2021, published 2025)
≈ marks a conversion by molar mass, not a printed value.

Legend:
[1] = system: rat model of polycystic kidney disease (PCK); experiment: uricase inhibition by oxonic acid in rat model of polycystic kidney disease (FIG. 6A); assay type: in vivo
Protocol: (§1) FIG. 6: provides data showing that uricase inhibition by oxonic acid (OXO) and commensurate increased uric acid is associated with increased total kidney to body weight ratio (2K/BWT) in a rat model of polycystic kidney disease (PCK) and in a mouse model of polycystic kidney disease (Pkd1RC/RC). Rodent models of polycystic kidney disease were treated with a uricase enzyme inhibitor—oxonic acid (OXO)—to decrease the metabolism of uric acid to allantoin, thereby chronically increasing circulating serum uric acid concentration. […] Increased serum uric acid is associated with structural and functional changes in kidney function. Increased creatinine is associated with decreased filtering capacity of kidneys. disease.

[2] = system: mouse model of polycystic kidney disease (Pkd1RC/RC); experiment: uricase inhibition by oxonic acid in mouse model of polycystic kidney disease (FIG. 6B); assay type: in vivo
Protocol: as §1

[3] = system: rodent model of polycystic kidney disease; experiment: uricase inhibition by oxonic acid, kidney function in rodent model of polycystic kidney disease (FIG. 7); assay type: in vivo
[4] = system: rodent model of polycystic kidney disease—mouse RC/RC; experiment: oxonic acid exposure with or without OXY+L in mouse RC/RC, kidney size (FIG. 9); assay type: in vivo; settings: oxonic acid (OXO) exposure alone
Source text: FIG. 9: is a graph showing that in a rodent model of polycystic kidney disease—mouse RC/RC-oxonic acid (OXO) exposure increased kidney size.

[5] = oxypurinol solubility with and without metformin; assay type: physicochemical
Source text: The term “organic base” as used herein refers to the organic base may be (a) a Class 1 base with a pKa1 between about 7 to 13 including but not limited to L-arginine, D-arginine, choline, L-lysine, D-lysine, and caffeine. In an alternative embodiment, the organic base is a biguanide (U.S. Pat. No. 9,480,663) or biguanidine such as metformin, phenformin, buformin or a salts thereof. It is noted that metformin has multiple beneficial effects in the context of compositions and methods described herein. First, it can act as a solubilizing agent for oxypurinol to increase oral bioavailablity. Secondarily, it can act as an alkalinizing agent. Thirdly, metformin here can act as a uric acid solubilizing agent. […] The gliflozin family of SGLT2 inhibitors are also basic and can serve as an organic base in accord with the teachings herein.

[6] = 8 weeks of treatment with oxonic acid, compared to untreated animals
[7] = PCK rat, after 70 days exposure to oxonic acid, P<0.05
[8] = Pkd1RC/RC mouse, after 70 days exposure to oxonic acid, P<0.05

solubility ([5]; 1:01 to 1:10 ratio of oxypurinol to metformin) [µg/mL]	solubility ([5]; without metformin (starting value)) [µg/mL]	Compound	total kidney volume [1, 6]	serum uric acid ([1]; PCK rat, after 70 days exposure to oxonic acid)	cyst size [1, 7]	total kidney to body weight ratio (2K/BWT) [1, 7]	serum creatinine ([1]; PCK rat, after 70 days exposure to oxonic acid, P<0.07)	total kidney volume [2, 6]	serum uric acid ([2]; Pkd1RC/RC mouse, after 70 days exposure to oxonic acid)	cyst size [2, 8]	serum creatinine [2, 8]	total kidney to body weight ratio (2K/BWT) [2, 8]	creatinine in serum (kidney function) [3]	kidney size [4]
–	–	O=C(O)c1nc(=O)[nH]c(=O)[nH]1 [oxonic acid]	increased significantly	increased	increased	increase	increased	increased significantly	increased	increased	increased	increase	increased	increased
≥ 16800	200 (≈ 1310 µM)	O=c1[nH]c(=O)c2c[nH]nc2[nH]1 [oxypurinol]	–	–	–	–	–	–	–	–	–	–	–	–
